Read-outs that look alike come from different tables or passages of the source.
What was measured:
in vivo [1] = conditions: female, rat, po, 10 mg/kg/day
[2] = T-CALM: plasma concentrations by 5-in-1 LC/MS/MS; type: in vivo, human; conditions: for Plasma concentration, mean: trough
Description: Additionally, at Visit 4, a post-dose sample will be collected as close to 4 hours post-dose as possible, but within the window of 4-6 hours post-dose (i.e., a total of two PK samples are collected at Visit 4.)
Assay performances were satisfactory and met acceptance criteria for system performance suitability, quantitation range, calibration linearity, assay accuracy and precision, and assay recovery.

P-glycoprotein = P-glycoprotein bidirectional transport; type: in vitro ADME, human, monkey, and rat
Description: (§1) Glucuronide conjugates of the oxygenated metabolites are detected in human, monkey, and dog hepatocyte preparations. […] However, the abundance of CYP3A5, CYP2C19, and CYP2D6 in human liver microsomes is low (2%-5%) relative to the primary contributors, CYP3A4 (˜30%) and CYP2C9 (˜20%). […] Information on reproductive and developmental toxicology was obtained in a 28-day pivotal female fertility study in rats and in preliminary embryo-fetal development studies in rats and rabbits.

[3] = tested on: T1, guinea pig adenosine transporter; assay: Adenosine transporter inhibition; type: biochemical; conditions: 10 μM
T1 construct: other: 10 μM

[4] = tested on: T2, CYP1A2, CYP3A4, CYP2C8, CYP2C9, CYP2C19, CYP2D6; assay: CYP inhibition in human liver microsomes; type: in vitro ADME; conditions: human liver microsomes
T2 construct: IC50, CYP1A2, CYP3A4, CYP2C8, CYP2C9, CYP2C19, CYP2D6; other: human liver microsomes

[5] = Phase 1 multiple-dose pharmacokinetics (PN002/Part II); conditions: for half-life / AUC / Cmax: human, plasma
in vivo [6] = conditions: Beagle, dog, po, 300 mg/kg
Pharmacokinetics in rats = type: in vivo, rat; conditions: for Ratio of AUC24 (metabolite/CX-8998): Rat, single oral dose 10 mg/kg of CX-8998; for AUC: rat, plasma, po, 10 mg/kg, read-out: AUC24
Description: The validity and reproducibility of the assays were determined, and the precision and accuracy for calibration standards and quality control samples were examined. […] The analytes were stable in plasma under the storage and assay conditions. […] Assay performances were satisfactory and met acceptance criteria for system performance suitability, quantitation range, calibration linearity, assay accuracy and precision, and assay recovery.

[7] = Brain penetration in male rats; type: in vivo; conditions: rat, 25 mg/kg
CYP2B6 = CYP2B6 mRNA induction in human hepatocytes; type: in vitro ADME
Description: as §1

CYP2C9 = target: T3, CYP2C9 (Homo sapiens, UniProt P11712); assay: In vitro metabolism (liver microsomes, hepatocytes, recombinant CYPs, anti-CYP antibodies); type: in vitro ADME; conditions: recombinant CYP2C9
T3 construct: host or cells: pooled liver microsomes, hepatocytes and recombinant CYP enzymes
T3 sequence (P11712 whole entry): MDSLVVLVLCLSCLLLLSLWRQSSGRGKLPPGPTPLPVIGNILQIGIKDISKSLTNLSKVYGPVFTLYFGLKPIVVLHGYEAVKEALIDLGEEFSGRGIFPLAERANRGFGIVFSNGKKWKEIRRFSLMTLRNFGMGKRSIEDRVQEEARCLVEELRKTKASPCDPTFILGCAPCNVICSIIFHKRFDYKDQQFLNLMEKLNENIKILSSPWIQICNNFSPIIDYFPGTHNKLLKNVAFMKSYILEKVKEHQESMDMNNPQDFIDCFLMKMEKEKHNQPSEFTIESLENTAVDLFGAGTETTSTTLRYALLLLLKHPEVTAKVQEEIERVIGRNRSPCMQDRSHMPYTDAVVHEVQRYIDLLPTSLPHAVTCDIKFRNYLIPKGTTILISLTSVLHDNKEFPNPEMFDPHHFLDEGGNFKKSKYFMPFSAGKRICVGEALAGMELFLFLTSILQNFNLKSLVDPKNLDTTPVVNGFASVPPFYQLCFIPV
Description: as §1

[8] = 90-day oral toxicology in Beagle dogs; conditions: Beagle, dog, in vivo, po
[9] = Single-dose toxicokinetic study in dogs; type: in vivo; conditions: dog, plasma, po, 800 mg/kg
WAG/Rij rats = assay: WAG/Rij rat model of absence epilepsy; type: in vivo; conditions: 10 mg/kg oral
Description: Other T-type antagonists from structurally diverse series have shown similar efficacy in this model (Broicher, 2007; Blumenfeld, 2008; Broicher, 2008; Shipe, 2008; Yang, 2008; Uebele, 2009; Russo, 2010; Russo, 2011).
Data were scored with automated seizure analysis software, averaged, and normalized to enable treatment comparisons (FIG. 76)
Control animals received vehicle administrations. […] Source: Merck TTA Package Description (FIG. 79).

[10] = M01, Day 7, CX-8998 2 mg once daily
[11] = M01, Day 7, CX-8998 18 mg once daily

Question: With C=C(C)c1ccc(CC(=O)N[C@H](C)c2ccc(OCC(F)(F)F)cn2)cc1 [M01] as the compound, how does the AUC (in vivo [1]) read?
Answer: 8.11 µM·h

Question: And the Cmax (in vivo [1])?
Answer: 2660 nM

Question: What about the “Plasma concentration, mean” value ([2]; Visit 2 (Day 8), 4 mg BID) of the same compound?
Answer: 398 nM

Question: What about the “Plasma concentration, mean” value ([2]; Visit 3 (Day 15), 8 mg BID) of the same compound?
Answer: 812 nM

Question: What about the “Plasma concentration, mean” value ([2]; Visit 4 (Day 28), 10 mg BID) of the same compound?
Answer: 1023 nM

Question: And the concentration at 4 h ([2]; human, plasma, oral, Visit 4 (Day 28), 10 mg BID, 4 hours post-dose)?
Answer: 976 nM

Question: And the “P-glycoprotein substrate or inhibitor activity” value (P-glycoprotein)?
Answer: did not demonstrate any activity as a substrate or inhibitor

Question: And the Inhibition [3]?
Answer: 79%

Question: What about the IC50 [4] of the same compound?
Answer: > 20 µM

Question: And the “AUC Ratio, metabolite to parent” value [5, 10]?
Answer: 1.12

Question: What about the “Cmax Ratio, metabolite to parent” value [5, 10] of the same compound?
Answer: 0.36

Question: What about the “Cmax Ratio, metabolite to parent” value ([5]; M01, Day 7, CX-8998 4 mg once daily) of the same compound?
Answer: 0.36

Question: What about the “AUC Ratio, metabolite to parent” value ([5]; M01, Day 7, CX-8998 12 mg once daily) of the same compound?
Answer: 1.15

Question: What about the “AUC Ratio, metabolite to parent” value [5, 11] of the same compound?
Answer: 1.34

Question: And the “Cmax Ratio, metabolite to parent” value [5, 11]?
Answer: 0.57

Question: And the “Relative potency (CX-8998 = 1.00)” value ([5]; based on potency, free fraction, maximum Cmax ratios)?
Answer: 0.27

Question: What about the half-life ([5]; 2 mg) of the same compound?
Answer: 25.8 h

Question: And the AUC ([5]; 2 mg, AUC24, M01, Day 7, CX-8998 2 mg once daily)?
Answer: 1.52 µM·h

Question: And the Cmax ([5]; 2 mg, M01, Day 7, CX-8998 2 mg once daily)?
Answer: 76 nM

Question: And the AUC ([5]; 4 mg, AUC24, M01, Day 7, CX-8998 4 mg once daily)?
Answer: 2.83 µM·h

Question: What about the Cmax ([5]; 4 mg, M01, Day 7, CX-8998 4 mg once daily) of the same compound?
Answer: 136 nM

Question: What about the half-life ([5]; 12 mg) of the same compound?
Answer: 22.6 h

Question: And the half-life ([5]; 18 mg)?
Answer: 19 h

Question: What about the AUC ([5]; 18 mg, AUC24, M01, Day 7, CX-8998 18 mg once daily) of the same compound?
Answer: 18.3 µM·h

Question: And the Cmax ([5]; 18 mg, M01, Day 7, CX-8998 18 mg once daily)?
Answer: 865 nM

Question: What about the half-life ([5]; male, oral) of the same compound?
Answer: 19 to 25.8 h

Question: And the Kp at 24 h (in vivo [6]; female, CSF)?
Answer: 0.112

Question: What about the concentration at 24 h (in vivo [6]; female, CSF) of the same compound?
Answer: 112 nM

Question: What about the Kp at 24 h (in vivo [6]; female, brain (frontal cortex)) of the same compound?
Answer: 0.696

Question: What about the concentration at 24 h (in vivo [6]; female, brain (frontal cortex)) of the same compound?
Answer: 696 nM

Question: And the Kp at 24 h (in vivo [6]; female, brain (thalamus))?
Answer: 0.772

Question: And the concentration at 24 h (in vivo [6]; female, brain (thalamus))?
Answer: 772 nM

Question: And the Kp at 24 h (in vivo [6]; male, CSF)?
Answer: 0.149

Question: And the concentration at 24 h (in vivo [6]; male, CSF)?
Answer: 149 nM

Question: What about the Kp at 24 h (in vivo [6]; male, brain (frontal cortex)) of the same compound?
Answer: 0.19

Question: What about the concentration at 24 h (in vivo [6]; male, brain (frontal cortex)) of the same compound?
Answer: 190 nM

Question: What about the Kp at 24 h (in vivo [6]; male, brain (thalamus)) of the same compound?
Answer: 0.208

Question: What about the concentration at 24 h (in vivo [6]; male, brain (thalamus)) of the same compound?
Answer: 208 nM

Question: What about the “Ratio of AUC24 (metabolite/CX-8998)” value (Pharmacokinetics in rats; Female) of the same compound?
Answer: 0.52

Question: What about the “Ratio of AUC24 (metabolite/CX-8998)” value (Pharmacokinetics in rats; Male) of the same compound?
Answer: 0.63

Question: And the AUC (Pharmacokinetics in rats; female)?
Answer: 8.7 µM·h

Question: And the AUC (Pharmacokinetics in rats; male)?
Answer: 3.7 µM·h

Question: What about the Kp at 2 h ([7]; brain and plasma, oral, read-out: Brain-to-plasma ratio) of the same compound?
Answer: 0.27

Question: What about the Kp at 2 h ([7]; brain, po, read-out: Brain: Plasma Ratio) of the same compound?
Answer: 0.27

Question: And the CYP2B6 induction (CYP2B6)?
Answer: mild to moderate inducers

Question: And the “KM for CYP2C9 reactions (formation)” value (CYP2C9)?
Answer: ~3 µM

Question: What about the AUC ([8]; female, 10 mg/kg) of the same compound?
Answer: 38.6 µM·h

Question: What about the AUC ([8]; female, 30 mg/kg) of the same compound?
Answer: 103 µM·h

Question: What about the AUC ([8]; female, 100 mg/kg/day) of the same compound?
Answer: 431 µM·h

Question: What about the AUC ([8]; male, 10 mg/kg) of the same compound?
Answer: 54.9 µM·h

Question: What about the AUC ([8]; male, 30 mg/kg) of the same compound?
Answer: 121 µM·h

Question: And the AUC ([8]; male, 100 mg/kg/day)?
Answer: 1770 µM·h

Question: And the Tmax ([9]; female)?
Answer: 8 h

Question: What about the Tmax ([9]; male) of the same compound?
Answer: 8 h

Question: What about the Percent of inhibition (WAG/Rij rats) of the same compound?
Answer: 71%

— patent US11311522B1 (Cavion, Inc., priority 2018, dated 2022)
